Values after ≈ are worked out from the molar mass of the structure shown. Like-named read-outs stand apart in the source and are kept apart here. Values belong to the compound of their own block, whether it stands above or below them.
How the values were obtained:
[1] = Animal Study 2 (oral glucose tolerance test); design: species or system Crlj:CD1 (ICR) mice; conditions: Mus musculus, read-out: In vivo studies 300 mg/kg (oral glucose tolerance test, % decrease)
Source text: The results of in vivo oral glucose tolerance test (Example 39), expressed as % decrease, are presented as follows: […]
Animal Study 2 (Oral Glucose Tolerance Test)
Male Crlj:CD1 (ICR) mice were obtained from Charles River Laboratries Japan (Yokohama, Japan). All mice were given a standard diet (Clea Japan, Tokyo, Japan) and tap water ad libitum. All institutional guidelines for animal care and use were applied in this study. Test compounds were suspended in 0.3% carboxymethyl-cellulose sodium salt (CMC-Na; Sigma, St. Louis, Mo.). After fasting for 15-17 hr, the test compound (300 mg/kg) or vehicle (0.3% CMC-Na) was orally administered to 7-week-old ICR mice. Glucose solution (5 g/kg) was orally administered at 30 min after test compound treatment. Blood samples were collected from tail vein using capillary tubes containing EDTA·2K before test compound treatment, and at 0, 0.5, 1, and 2 hr after glucose load. The blood samples were centrifuged at 2,500×g for 5 min and separated plasma was kept on ice and analyzed in the same day. Plasma glucose levels were determined using the glucose C II-test (Wako Pure Chemical Industries, Osaka, Japan).
The sum of plasma glucose levels at 0.5 and 1 hr after glucose load was compared to that of vehicle treatment, and results were presented as percent decrease.

[2] = target: T1, recombinant full-length human GSK3β (Homo sapiens, UniProt P49841); experiment: Luciferase-coupled cell-free GSK3β kinase assay; format: biochemical
T1 construct: recombinant full-length human GSK3β (Upstate); purchased Upstate
Method in brief: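 GSK3β, 10-25 ng, was incubated with compound for 1 h at 30° C in MOPS pH 7.0 buffer containing 62.5 μM phospho-glycogen synthase peptide-2 and 5 μM ATP. Remaining ATP was read by KinaseGlo luminescence, and IC50 was fitted from % inhibition relative to maximal inhibition.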

S. aureus Smith = experiment: Antibacterial activity (MIC), S. aureus; format: cell-based; conditions: Staphylococcus aureus
Source text: (§1) As used herein, a minimum inhibitory concentration (MIC) for bacterial growth assay is the lowest level of a compound needed to cause an inhibition to bacterial growth in culture medium. In certain embodiments, the antibacterial activity of compounds herein, measured as MIC.
(§2) In certain embodiments, GSK3 inhibitors provided herein are substantially free of antibacterial activity or having very low antibacterial activity. The antibacterial activity can be measured by methods known in the art by estimating a minimum inhibitory concentration (MIC) for test compounds. A MIC is the lowest level of a compound needed to cause an inhibition to bacterial growth in a culture medium. […] (Clinical and Laboratory Standards Institute. Methods for Dilution Antimicrobial Susceptibility Tests for Bacteria That Grow Aerobically; Approved Standard-Sixth Edition: CLSI document […]. CLSI, Wayne, Pa. (2003))
(§3) Antibacterial activity for E. coli, ATCC8739 andS. aureus Smith expressed as MIC (μM) is provided as follows: […]

E. coli, ATCC8739 = experiment: Antibacterial activity (MIC), E. coli; format: cell-based; conditions: Escherichia coli
Source text: as §1, §2, §3

[3] = Table 2, 300 mg/kg oral, ICR mice, plasma glucose 0.5 and 1 hr after glucose load vs vehicle
[4] = Table 2, S. aureus Smith, read-out: Antimicrobial MIC [μM] S. aureus
[5] = ATCC8739, Table 2, E. coli ATCC8739, read-out: Antimicrobial MIC [μM] E. Coli
[6] = Table 1, read-out: Antibacterial MIC (μM) S. aureus Smith
[7] = ATCC8739, Table 1, E. coli ATCC8739, read-out: Antibacterial MIC (μM) E.Coli

T1 sequence (P49841 whole entry): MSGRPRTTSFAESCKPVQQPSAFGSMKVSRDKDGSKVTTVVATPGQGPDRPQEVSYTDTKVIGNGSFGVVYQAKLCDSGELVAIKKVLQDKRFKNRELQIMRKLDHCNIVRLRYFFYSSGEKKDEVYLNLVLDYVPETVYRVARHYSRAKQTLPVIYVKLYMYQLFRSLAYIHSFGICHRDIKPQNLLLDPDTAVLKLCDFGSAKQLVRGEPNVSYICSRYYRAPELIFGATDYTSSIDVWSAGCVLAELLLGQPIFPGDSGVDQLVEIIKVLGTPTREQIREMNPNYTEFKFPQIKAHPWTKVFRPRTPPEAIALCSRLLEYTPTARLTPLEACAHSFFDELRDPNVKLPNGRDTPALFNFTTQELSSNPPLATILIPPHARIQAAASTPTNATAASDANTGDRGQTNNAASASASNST

IC50 ([2]; Table 2): 100 to 500 nM
Compound: C[C@H]1COc2c(NCCCn3ccnc3)c(F)c(N)c3c(=O)c(C(N)=O)cn1c23 [Example 107]
inhibition in vivo at 300 mg/kg [1, 3]: 10 to 20%

IC50 ([2]; Table 2): < 100 nM
Compound: C[C@H]1COc2c(NCCNc3ccccn3)c(F)c(N)c3c(=O)c(C(N)=O)cn1c23 [Example 109]
inhibition in vivo at 300 mg/kg [1, 3]: 10 to 20%

IC50 ([2]; Table 2): < 100 nM
Compound: C[C@H]1COc2c(NCCS(=O)(=O)N3CCCCC3)c(F)c(N)c3c(=O)c(C(=O)O)cn1c23 [Example 112]
inhibition in vivo at 300 mg/kg [1, 3]: < 5%

MIC (S. aureus Smith; [4]): > 50 µM | MIC (E. coli, ATCC8739; [5]): > 50 µM | IC50 ([2]; Table 2): 100 to 500 nM
Compound: CC1(C)Cn2cc(C(=O)O)c(=O)c3c(N)c(F)c(NCCCn4ccnc4)c(c32)O1 [compound 58]

MIC (S. aureus Smith; [6]): 10 to 50 µM (≈ 4.34 to 21.7 µg/mL) | MIC (E. coli, ATCC8739; [7]): 10 to 50 µM (≈ 4.34 to 21.7 µg/mL) | IC50 ([2]; Table 1): 100 to 500 nM
Compound: Nc1c(F)c(NCCCc2ccccc2)c(F)c2c1c(=O)ccn2CCc1ccccc1 [compound 58]

MIC (S. aureus Smith; [4]): 10 to 50 µM (≈ 4.25 to 21.3 µg/mL) | MIC (E. coli, ATCC8739; [5]): 10 to 50 µM (≈ 4.25 to 21.3 µg/mL) | IC50 ([2]; Table 2): 100 to 500 nM
Compound: CC1(C)Cn2cc(C(=O)O)c(=O)c3c(N)c(F)c(NCCCc4ccccc4)c(c32)O1 [compound 59]

MIC (S. aureus Smith; [6]): > 50 µM | MIC (E. coli, ATCC8739; [7]): > 50 µM | IC50 ([2]; Table 1): 100 to 500 nM
Compound: Nc1c(F)c(NCCc2ccncc2)c(F)c2c1c(=O)ccn2CCc1ccccc1 [compound 59]

MIC (S. aureus Smith; [6]): 10 to 50 µM (≈ 4.15 to 20.8 µg/mL) | MIC (E. coli, ATCC8739; [7]): 10 to 50 µM (≈ 4.15 to 20.8 µg/mL) | IC50 ([2]; Table 1): 500 to 1000 nM
Compound: CC(C)OCCCNc1c(F)c(N)c2c(=O)ccn(CCc3ccccc3)c2c1F [compound 60]

MIC (S. aureus Smith; [4]): 0.5 to 10 µM (≈ 0.221 to 4.41 µg/mL) | MIC (E. coli, ATCC8739; [5]): 0.5 to 10 µM (≈ 0.221 to 4.41 µg/mL) | IC50 ([2]; Table 2): < 100 nM
Compound: CC(C)[C@@H]1COc2c(NCCNc3ccccn3)c(F)c(N)c3c(=O)c(C(=O)O)cn1c23 [compound 62]

MIC (S. aureus Smith; [4]): 0.5 to 10 µM (≈ 0.22 to 4.39 µg/mL) | MIC (E. coli, ATCC8739; [5]): 0.5 to 10 µM (≈ 0.22 to 4.39 µg/mL) | IC50 ([2]; Table 2): < 100 nM
Compound: CC(C)[C@@H]1COc2c(NCCCc3ccccc3)c(F)c(N)c3c(=O)c(C(=O)O)cn1c23 [compound 64]

MIC (S. aureus Smith; [6]): 10 to 50 µM (≈ 4.85 to 24.2 µg/mL) | MIC (E. coli, ATCC8739; [7]): 10 to 50 µM (≈ 4.85 to 24.2 µg/mL) | IC50 ([2]; Table 1): 100 to 500 nM
Compound: Nc1c(F)c(NCCNc2cccc3ccccc23)c(F)c2c1c(=O)ccn2CCc1ccccc1 [compound 64]

More lines, now with the values behind:

Compound: Cc1nn(C)c(C)c1CCCNc1c(F)c(N)c2c(=O)c(C(=O)O)cn3c2c1OC[C@@H]3C [Example 93]
inhibition in vivo at 300 mg/kg [1, 3]: > 20%

Compound: C[C@H]1COc2c(NCCOc3ccc(F)cc3)c(F)c(N)c3c(=O)c(C(=O)O)cn1c23 [Example 101]
inhibition in vivo at 300 mg/kg [1, 3]: 10 to 20% | IC50 ([2]; Table 2): < 100 nM

Compound: C[C@H]1COc2c(NCCNC3=NS(=O)(=O)c4ccccc43)c(F)c(N)c3c(=O)c(C(=O)O)cn1c23 [Example 113]
inhibition in vivo at 300 mg/kg [1, 3]: < 5% | IC50 ([2]; Table 2): < 100 nM

Compound: CC1(C)COc2c(NCCNc3ccccn3)c(F)c(N)c3c(=O)c(C(=O)O)cn1c23 [compound 17]
inhibition in vivo at 300 mg/kg ([1]; po): 10 to 20%

Compound: CC(C)C[C@H]1COc2c(NCCCn3cnc4ccccc43)c(F)c(N)c3c(=O)c(C(=O)O)cn1c23 [compound 49]
inhibition in vivo at 300 mg/kg ([1]; po): 10 to 20%

Compound: CC(C)[C@H]1COc2c(NCCCn3ccnc3)c(F)c(N)c3c(=O)c(C(=O)O)cn1c23 [compound 55]
inhibition in vivo at 300 mg/kg ([1]; po): 10 to 20%

Compound: CC(C)[C@H]1COc2c(NCCNc3ccccn3)c(F)c(N)c3c(=O)c(C(=O)O)cn1c23 [compound 60]
MIC (S. aureus Smith; [4]): 10 to 50 µM (≈ 4.41 to 22.1 µg/mL) | MIC (E. coli, ATCC8739; [5]): 10 to 50 µM (≈ 4.41 to 22.1 µg/mL) | IC50 ([2]; Table 2): < 100 nM

Compound: CC(C)[C@H]1COc2c(NCCNc3ccccn3)c(F)c(N)c3c(=O)c(C(=O)O)cn1c23 [compound 61]
inhibition in vivo at 300 mg/kg ([1]; po): 10 to 20%

Compound: Nc1c(F)c(NCCCn2ccnc2)c(F)c2c1c(=O)c(C(=O)O)cn2CCCn1ccnc1 [compound 61]
MIC (S. aureus Smith; read-out: Antibacterial MIC (μM) S. aureus Smith): > 50 µM | MIC (E. coli, ATCC8739; ATCC8739, read-out: Antibacterial MIC (μM) E.Coli): > 50 µM | IC50 ([2]; Table 1): 100 to 500 nM

Compound: CC(C)[C@@H]1COc2c(NCCCn3ccnc3)c(F)c(N)c3c(=O)c(C(=O)O)cn1c23 [compound 63]
MIC (S. aureus Smith; [4]): 10 to 50 µM (≈ 4.29 to 21.5 µg/mL) | MIC (E. coli, ATCC8739; [5]): > 50 µM | IC50 ([2]; Table 2): < 100 nM

Compound: Nc1c(F)c(NCCNc2ccccn2)c(F)c2c1c(=O)ccn2CCc1ccccc1 [compound 63]
MIC (S. aureus Smith; [6]): 10 to 50 µM (≈ 4.35 to 21.8 µg/mL) | MIC (E. coli, ATCC8739; [7]): 10 to 50 µM (≈ 4.35 to 21.8 µg/mL) | IC50 ([2]; Table 1): 100 to 500 nM

— patent US8063221B2, “Aminoquinolones as GSK-3 inhibitors” (Kyorin Pharmaceutical Co., Ltd., priority 2006, dated 2011)
